Here are results for 1 compound from patent publication US20240309015A1, “Methods for the Treatment of Fibrotic Disease” (SHY Therapeutics, LLC, priority 2021, published 2024).

SMILES strings stand for the structures.

In one assay the test system is Smad2/3 phosphorylation. The assay can be described thus: Phospho-Smad2/3 Inhibition Assay in PANC-1. Format: cell-based. The conditions noted are these: Homo sapiens, western blot. The method in brief: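 Serum-starved cells (0.5% FBS overnight) pretreated 3 h at 37 °C with compound at 10 μM or serial dilutions for IC50, in 0.3% DMSO. TGF-b1 10 ng/ml stimulation: 1 h for Panc-1 (human), 20 min for C2C12 (mouse). Phospho-Smad2 (Ser465/467) and phospho-Smad3 (Ser423/425) measured by western blot of lysates.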
(In general: A western blot detects proteins with antibodies after separation by electrophoresis.)

The next assay concerns MAPK p38. Description: MAPK p38 Activation Assay in PANC-1. Format: cell-based, human. Details: key: Y = yes; N = No. The conditions noted are these: at 10 μM. As for the experimental part:
Cell lines: Human tumor-derived pancreatic cancer cell line Panc-1 and mouse muscle myoblast C2C12 were purchased from American Type Culture Collection and grown in complete DMEM-High Glucose, supplemented with penicillin (100 U/mL), streptomycin (100 μg/mL), and 10% heat-inactivated FBS at 37° C. in a humidified incubator with 5% C02.
Method: Cells were plated at 350000 cells/well density in a 12-well plate, allowed 3 hours to adhere to the plate, then starved in the appropriate medium in the presence of 0.5% FBS overnight. The small molecules to be tested were added to the cells in the final concentration of 10 μM in the presence of 0.3% DMSO for 3 hours incubation at 37° C. For IC50 value determination, serial dilutions of compounds were added to cells under the same conditions. […] Protein concentration was assessed by BCA protein assay (Thermo Scientific). Phosphorylation level of MAPK p38 was determined by western blot.
Western blot protocol: Equal amounts of protein (15-50 μg) were separated by SDS-PAGE and transferred to nitrocellulose membranes (Invitrogen by Thermo Fisher Scientific). […] Membranes were blocked with 10% milk and phosphorylation levels of Smad2/Smad3 were assessed by incubating overnight at 4° C. with the following antibody: Phospho-p38 MAPK (Thr180/Tyr182), from Cell Signaling Technology. […]

What is called IC50 is the concentration at which inhibition is half-maximal.

Take `CO[C@H]1CC[C@@H](Nc2nc(-c3nccn3C)nc3sc(-c4ccn(C)n4)c(-c4ccccc4)c23)C1` (racemic) [Compound 5, rac-N-((1R,3S)-3-Methoxycyclopentyl)-2-(1-methyl-1H-imidazol-2-yl)-6-(1-methyl-1H-pyrazol-3-yl)-5-phenylthieno[2,3-d]pyrimidin-4-amine]: the inhibition at 10 µM in the assay on Smad2/3 phosphorylation (10 μM compound, 3 h, TGF-b1 stimulated PANC-1, read-out: % inh of Smad2/3 phosphorylation in PANC-1) fell in the range of 76 to 100%. The compound also came in with a half-inhibitory concentration (IC50) with Smad2/3 phosphorylation (PANC-1, TGF-b1 stimulated) of 5 to 10 µM. In the assay with MAPK p38, the “Activation of MAPK p38 in PANC-1” value was “Y”.
